Values quoted from earlier work in patent US12350336B2, “Photo-activatable compound, its preparation and therapeutic use” (City University of Hong Kong, priority 2021, dated 2025).

Conditions: calibration standard value

**Q.** Which “ΦΔ (1O2 quantum yield) of calibration standard” value does the source give for `CN(C)c1ccc2nc3ccc(=[N+](C)C)cc-3sc2c1` [MB, Methylene blue] here?
**A.** Its value is 0.52.
